One series deals with KLK3 mRNA. As to the kind of experiment: KLK3 mRNA (AR target gene) in C4-2B MR cells. It is filed as cell-based, human. The conditions noted are these: C4-2B MR cells, 0.04-5.00 μM.
The subject of another series is C4-2B MR cells. Briefly: Proliferation of MDV3100-resistant C4-2B cells (CellTiter 96). It is filed as cell-based, human. The conditions noted are these: 0.04-5.00 μM, 6 days. The method, then: ISIS 549372, ISIS 549434, ISIS 549458, and ISIS 554221 were each added to the culture media at 0.04 μM, 0.20 μM, 1.00 μM, and 5.00 μM concentration of antisense oligonucleotide. ISIS 347526 was included as a negative control. After a treatment period of 6 days, the proliferative capacity of the cancer cells was measured with using CellTiter 96® AQueous One Solution Cell Proliferation kit (Promega), following the manufacturer's instructions. Results are presented in Table 41 as percent inhibition of proliferation, relative to non-treated cells.

In the next series the test system is AR full-length mRNA. Briefly: AR full-length mRNA in CWR22-RV1 cells (RNAiMax, RTS3559). The class given is cell-based, human. The conditions noted are these: 6 days. The method, then:
(§1) CWR22-RV1 cells were plated and transfected using RNAiMax reagent (Life Technologies) with ISIS oligonucleotides at 1.7 nM, 5.0 nM, 16.7 nM, or 50 nM concentrations. ISIS 347526 was included as a negative control. After a treatment period of 6 days, the target reduction and proliferative capacity of the cancer cells was measured.
(§2) Antisense inhibition of AR full-length mRNA was measured with the RTS3559 primer probe set. The results are presented in Table 63 as percent inhibition relative to non-treated cells. The reduction in V7 splice variant of the AR mRNA was also measured by RT-PCR using SYBR Green staining (Hu, R. et al., Cancer Res. 2009. 69: 16-22). The results are presented in Table 64, as percent reduction, relative to non-treated cells. Cell proliferation was measured with CellTiter 96® AQueous One Solution Cell Proliferation kit (Promega), following the manufacturer's instructions. Results are presented in Table 65 as percent inhibition of proliferation, relative to non-treated cells.

The next series relates to CWR22-RV1 cells. As to the kind of experiment: CWR22-RV1 cell proliferation (CellTiter 96). The class given is cell-based, human. Particulars: RNAiMax, 6 days. The method, then: as §1, §2
Another series relates to total AR mRNA. Briefly: Total (full-length) AR mRNA in C4-2B MR cells, free uptake. It is filed as cell-based, human. The conditions noted are these: C4-2B MR cells, 0.04-5.00 μM free uptake, 24 hrs. As for the experimental part:
Cells were plated at a density of 40,000 cells per well in 96-well plates and cultured in RPMI1640 medium with 10% fetal bovine serum. […] ISIS 549372, ISIS 549458, ISIS 549434, and ISIS 554221 were each added at 0.04 μM, 0.20 μM, 1.00 μM, and 5.00 μM concentrations of antisense oligonucleotide to culture media for free uptake by the cells. […] After a treatment period of 24 hrs, total AR mRNA levels were measured by quantitative real-time PCR using primer probe set RTS3559.

Series [1] has as its system V7 splice variant of the AR mRNA. Briefly: AR V7 splice variant mRNA in CWR22-RV1 cells (RT-PCR SYBR Green). The class given is cell-based, human. The conditions noted are these: RNAiMax, 6 days. The method, then: as §1, §2
A further series deals with KLK2 mRNA. As to the kind of experiment: KLK2 mRNA (AR target gene) in C4-2B MR cells. The class given is cell-based, human. The conditions noted are these: C4-2B MR cells, 0.04-5.00 μM.
A further series relates to AR mRNA. Briefly: AR mRNA in C4-2B cells by free uptake (hAR_LTS00943). The class given is cell-based, human. The conditions noted are these: 24 hrs; for Percent inhibition of AR full-length mRNA: free uptake. The method, then: (§3) Cells were plated at a concentration of 1,000 cells/well in 96-well plates to measure cell proliferation, and at 4,000 cells/well to measure target reduction. ISIS 549458, ISIS 549372, ISIS 549434, and ISIS 554221 were added individually at 0.04 μM, 0.20 μM, 1.00 μM, or 5.00 μM. After an incubation period of 24 hrs, mRNA levels were measured using hAR_LTS00943.

A further series relates to full-length AR. Briefly: Western blot of full-length AR in MDV3100-resistant C4-2B cells. It is filed as cell-based, human. The conditions noted are these: C4-2B MR cells (Example 16). As for the experimental part:
ISIS 549372, ISIS 549434, and ISIS 554221 at 1 μM concentration of antisense oligonucleotide were each added to the culture media at 1 μM concentration for free uptake by the cells. After a treatment period of 2 days, cells were harvested in RIPA buffer containing protease inhibitors. The presence of bands for full-length AR, as well as the variant form, AR-V7, was detected by western blot using AR antibody (N-20, Santa Cruz).
Western analysis of full-length AR, as well as the AR-V7 variant, was also conducted in a manner similar to the assay described above.

For the next series, the system named is C4-2B cells. As to the kind of experiment: C4-2B cell proliferation by free uptake (MTT). It is filed as cell-based, human. The conditions noted are these: day 6. As for the experimental part:
as §3
On day 6, cells plated for measuring proliferation were incubated with MTT reagent until the development of color. Color intensity was measured using a spectrophotometer at 490 nm.

For series [2] the following is noted: cynomolgus monkey, in vivo, sc, 40 mg/kg.
Protocol: (§4) Prior to the study, the monkeys were kept in quarantine for a 30-day period, during which the animals were observed daily for general health. The monkeys were 2-4 years old and weighed between 2 and 4 kg. Thirteen groups of four randomly assigned male cynomolgus monkeys each were injected subcutaneously with ISIS oligonucleotide or PBS. PBS solution or ISIS oligonucleotides, at a dose of 40 mg/kg, were administered with a loading regimen consisting of four doses on the first week of the study (days 1, 3, 5, and 7), followed by a maintenance regimen consisting of once weekly administration starting on Day 14 (weeks 2 to 6). Subcutaneous injections were performed in clock-wise rotations at 4 sites on the back; one site per dose. The injection sites were delineated by tattoo, while sedated using ketamine, and were separated by a minimum of 3 cm.
Kidney function was also assessed by urinalysis. Fresh urine from all animals was collected on day 44 using a clean cage pan on wet ice. Food was removed overnight the day before fresh urine collection was done but water was supplied. The total protein and creatinine levels were measured using a Toshiba 120FR NEO automated chemistry analyzer (Toshiba Co., Japan) and the protein to creatinine ratio was calculated.
For series [3] the following is noted: cynomolgus monkey, in vivo, sc, 40 mg/kg. This is another data set of the same source.
Protocol: as §4
To evaluate any effect of ISIS oligonucleotides in cynomolgus monkeys on hematologic parameters, blood samples of approximately 0.5 mL of blood was collected day 44 from each of the available study animals in tubes containing K2-EDTA. Samples were analyzed for red blood cell (RBC) count, white blood cells (WBC) count, platelet count, hemoglobin content and hematocrit, using an ADVIA2120i hematology analyzer (SIEMENS, USA).
The conditions of series [4]: cynomolgus monkey, in vivo, sc, 40 mg/kg. This is another data set of the same source.
The conditions of series [5]: cynomolgus monkey, in vivo, sc, 40 mg/kg. The source holds these as a separate data set.
Protocol: as §4
To evaluate the effect of ISIS oligonucleotides on kidney function, the monkeys were fasted overnight. Approximately, 1.5 mL of blood samples were collected from all the study groups on day 44. Blood was collected in tubes without anticoagulant for serum separation. The tubes were kept at room temperature for a minimum of 90 min and then centrifuged at 3,000 rpm for 10 min. Levels of BUN and creatinine were measured using a Toshiba 120FR NEO chemistry analyzer (Toshiba Co., Japan).
The conditions of series [6]: cynomolgus monkey, in vivo, sc, 40 mg/kg. This is another data set of the same source.
For series [7] the following is noted: cynomolgus monkey, in vivo, sc, 40 mg/kg. This is another data set of the same source.
Protocol: as §4
To evaluate the effect of ISIS oligonucleotides on the overall health of the animals, body and organ weights were measured.

Oligonucleotides are written 5' to 3', each unit as a sugar letter and its base; * is a phosphorothioate linkage, no mark a phosphodiester; rarer units and linkages stand in square brackets, end groups in braces. Plain capitals give the bases only. k = constrained ethyl (cEt); [5mC] = 5-methylcytosine; d = 2'-deoxy (DNA)

Regarding “CTAAACTTCCCGTGGC (k[5mC]*kT*kA*dA*dA*d[5mC]*dT*dT*d[5mC]*d[5mC]*d[5mC]*dG*dT*kG*kG*k[5mC]) [ISIS 549434, targets 3'-end of exon 8]”, the “AR target gene KLK3 mRNA levels” value in the series on KLK3 mRNA is “reduced target gene levels in a dose dependent manner more extensively than treatment with ISIS 554221”. In addition, the “proliferation of C4-2B MR cells” value in the series with C4-2B MR cells is listed as “reduced proliferation of the cells in a dose dependent manner more extensively than treatment with ISIS 554221”. Besides, the “Percent inhibition of AR full-length mRNA” value with AR full-length mRNA (dose 5.0 nM) stood at 46%; in the series on AR full-length mRNA (dose 16.7 nM), 69%; with AR full-length mRNA (dose 50.0 nM), 86%; in the series on AR mRNA (dose 0.04 μM) it was 10%; in the series with AR mRNA (dose 0.20 μM), 35%; in the series with AR mRNA (dose 1.00 μM), 52%. In the series on AR mRNA (dose 5.00 μM), the “Percent inhibition of AR full-length mRNA” value is 55%. Further, the “Percent inhibition of cell proliferation” value with CWR22-RV1 cells (dose 5.0 nM) is given as 15%; with CWR22-RV1 cells (dose 16.7 nM) it was 13%; with CWR22-RV1 cells (dose 50.0 nM), 38%; with C4-2B cells (dose 0.04 μM), 0%; with C4-2B cells (dose 0.20 μM) it was 14%; in the series on C4-2B cells (dose 1.00 μM), 35%. For the same substance, the “Percent inhibition of cell proliferation” value in the series with C4-2B cells (dose 5.00 μM) is recorded as 37%. Moreover, the “total AR transcript levels” value in the series on total AR mRNA is given as “reduced total AR transcript levels in a dose dependent manner more extensively than treatment with ISIS 554221”. Also, the “Percent inhibition of AR splice variant, V7” value is 20% in [1] (dose 5.0 nM), 4% in series [1] (dose 16.7 nM) and 23% in [1] (dose 50.0 nM). The “AR target gene KLK2 mRNA levels” value in the series on KLK2 mRNA is given as “reduced target gene levels in a dose dependent manner more extensively than treatment with ISIS 554221”. Further, in the series on AR mRNA (free uptake 0.04-5.00 μM), the “AR mRNA expression” value is “inhibited AR mRNA expression more potently than ISIS 554221”. The “levels of full-length AR (Western analysis)” value in the series on full-length AR is on record as “reduced levels of full-length AR”.
Turning to “GATTTAATGGTTGCAA (cEt gapmer chemistry, further chemistry not given here) [ISIS 586124]”, the Urine protein/creatinine ratio in [2] is listed as 0.01. Further, in series [3], the HCT is reported as 45%, the Hemoglobin is reported as 13.6 g/dL, the Platelets was 391000 µL and the RBC was found to be 5.8e+06 µL. The substance further displayed a WBC in [3] of 10400 µL. In series [4], this substance came in with an ALT of 56 IU/L, an AST of 94 IU/L and an Albumin of 3.9 g/dL. In addition, in series [5], the “Plasma BUN” value was 23.8 mg/dL and the “Plasma Creatinine” value amounted to 0.87 mg/dL. Further, in series [6], the “C3 (% of baseline)” value is on record as 93 % of baseline and the CRP came out at 4.0 mg/dL. In [7], the “Body Wt” value came out at 2.5 kg, the Heart weight is given as 9.4 g, the Kidney weight came to 14 g and the Liver weight is listed as 58 g. Moreover, in series [7], the “Mesenteric lymph nodes weight” value was 2.8 g and the Spleen weight is on record as 3.3 g.
Take “ISIS 583918: antisense compound targeted to human AR (AGTCGCGACTCTGGTA; 3-10-3 (S)-cEt gapmer, further chemistry not given here)”: in series [2], the Urine protein/creatinine ratio came to 0.01. Further, in [3], the HCT was 46%, the Hemoglobin came to 13.3 g/dL, the Platelets amounted to 435000 µL and the RBC was 5.8e+06 µL. In [3], this substance returned a WBC of 12700 µL. In series [4], this substance yielded an ALT of 75 IU/L, an AST of 73 IU/L and an Albumin of 4.1 g/dL. For the same substance, in [5], the “Plasma BUN” value is 24.5 mg/dL and the “Plasma Creatinine” value was determined as 0.87 mg/dL. Further, in series [6], the “C3 (% of baseline)” value is given as 89 % of baseline and the CRP is on record as 3.5 mg/dL. Also, in series [7], the “Body Wt” value is reported as 2.5 kg, the Heart weight was determined as 8.9 g, the Kidney weight is on record as 12 g and the Liver weight was 60 g. In series [7], the “Mesenteric lymph nodes weight” value stood at 3.5 g and the Spleen weight worked out at 4.6 g.
Regarding “ISIS 584149: antisense compound targeted to human AR (GTCAATATCAAAGCAC; 3-10-3 (S)-cEt gapmer, further chemistry not given here)”, the Urine protein/creatinine ratio in [2] was 0.01. Also, in [3], the HCT came to 45%, the Hemoglobin is given as 13.7 g/dL, the Platelets is 478000 µL and the RBC came to 5.7e+06 µL. Moreover, the WBC in [3] is 11300 µL. In series [4], this substance yielded an ALT of 57 IU/L, an AST of 58 IU/L and an Albumin of 4.5 g/dL. Besides, in [5], the “Plasma BUN” value turned out to be 26.4 mg/dL and the “Plasma Creatinine” value was 0.85 mg/dL. Also, in series [6], the “C3 (% of baseline)” value is 110 % of baseline and the CRP came out at 1.7 mg/dL. Besides, in series [7], the “Body Wt” value is reported as 2.5 kg, the Heart weight is 9.3 g, the Kidney weight turned out to be 13 g and the Liver weight stood at 60 g. Besides, in [7], the “Mesenteric lymph nodes weight” value is on record as 2.1 g and the Spleen weight worked out at 2.2 g.
“ISIS 584163: antisense compound targeted to human AR (GAACATTATTAGGCTA; 3-10-3 (S)-cEt gapmer, further chemistry not given here)”: the Urine protein/creatinine ratio in series [2] was 0.01. Besides, in series [3], the HCT came out at 44%, the Hemoglobin stood at 12.8 g/dL, the Platelets turned out to be 461000 µL and the RBC is 5.5e+06 µL. This substance also displayed a WBC in [3] of 9100 µL. In series [4], this substance showed an ALT of 50 IU/L, an AST of 68 IU/L and an Albumin of 4.2 g/dL. Further, in series [5], the “Plasma BUN” value is listed as 22.4 mg/dL and the “Plasma Creatinine” value is 0.82 mg/dL. For the same substance, in series [6], the “C3 (% of baseline)” value is 102 % of baseline and the CRP came out at 1.0 mg/dL. Besides, in series [7], the “Body Wt” value is 2.5 kg, the Heart weight is listed as 8.4 g, the Kidney weight is 15 g and the Liver weight is listed as 54 g. Besides, in series [7], the “Mesenteric lymph nodes weight” value is 3.3 g and the Spleen weight was 3.2 g.

For the origin of these results see patent USRE48461E1, “Modulation of androgen receptor expression” (Ionis Pharmaceuticals, Inc., priority 2012, dated 2021).
